Reference: patent US5637582A, “Peripheral circulation improving agent” (priority 1992, dated 1997)

Legend:
femoral artery [1] = test: Increase in femoral arterial blood flow in anesthetized dogs, cumulative i.v. dosing (Experimental Example 1); type: in vivo, dog; settings: 60 min after administration
Description: (§1) Adult dogs (one group consisting of a dog) were intravenously given the test compound under anesthesia and artificial respiration successively at intervals of 60 minutes so that the dose can be 10, 30, 100 and 300 μg/kg body weight, and the blood flow of femoral artery was measured with a time course. […] An increase in the femoral arterial blood flow was calculated by subtracting the blood flow before the administration of the first dose of test compound as the standard value (the base line) from that 60 minutes after each administration.

femoral artery [2] = test: Maximum increase in femoral arterial blood flow in anesthetized dogs, cumulative i.v. dosing (Experimental Example 3); type: in vivo, dog; settings: maximum during 60 min
Description: as §1, with “consisting of 5 dogs) were intravenously” for “consisting of a dog) were intravenously”, “10, 30, 100, 300 and 1000” for “10, 30, 100 and 300”, “300 and 1000 μg/kg body” for “100 and 300 μg/kg body”, “from that of maximum during an interval of 60 minutes” for “from that 60 minutes”

arterial blood pressure = test: Change of arterial blood pressure in anesthetized dogs (Experimental Example 4); settings: 100 μg/kg i.v.
Description: (§2) Each test compound was intravenously administered to adult dogs (one group consisting of 2 or 4 dogs) under anesthesia and artificial respiration at a dose of 100 μg/kg body weight. Femoral arterial blood flow, vertebral arterial blood flow and arterial blood pressure were measured 1, 3, 5, 10, 20 and 30 minutes after the administration. The femoral arterial blood flow and vertebral arterial blood flow were measured with an electromagnetic blood flowmeter (manufactured by Nihon Koden, MFV-2100, trade name) through a flow probe attached to the femoral artery or vertebral artery. The arterial blood pressure was measured with a pressure transducer (manufactured by Millar, MICRO-TIP, Model SPC-350) through a catheter attached to the brachial artery.
(§3) Changes of the femoral arterial blood flow, vertebral arterial blood flow and arterial blood pressure were estimated by comparing the values measured before and after the administration of the test compound.

femoral artery [3] = test: Change of femoral arterial blood flow in anesthetized dogs (Experimental Example 4); type: in vivo, dog; settings: 100 μg/kg i.v.; for Increase in femoral arterial blood flow: 10 minutes after the administration, in words; for AUC60 of the femoral arterial blood flow: 60 minutes after administration
Description: as §2, §3

vertebral artery = test: Change of vertebral arterial blood flow in anesthetized dogs (Experimental Example 4); settings: 100 μg/kg i.v.
Description: as §2, §3

[4] = G and H: one minute after, in words

Structure (SMILES)	Increase in femoral arterial blood flow (femoral artery [1]; 10 μg/kg i.v.) [mL/min]	Increase in femoral arterial blood flow (femoral artery [1]; 30 μg/kg i.v.) [mL/min]	Increase in femoral arterial blood flow (femoral artery [1]; 100 μg/kg i.v.) [mL/min]	Increase in femoral arterial blood flow (femoral artery [1]; 300 μg/kg i.v.) [mL/min]	Increase in femoral arterial blood flow (femoral artery [2]; 30 μg/kg i.v.) [mL/min]	Increase in femoral arterial blood flow (femoral artery [2]; 100 μg/kg i.v.) [mL/min]	Increase in femoral arterial blood flow (femoral artery [2]; 300 μg/kg i.v.) [mL/min]	Increase in femoral arterial blood flow (femoral artery [2]; 1000 μg/kg i.v.) [mL/min]	Arterial Blood Pressure change (side effects) (arterial blood pressure; 1 min)	Arterial Blood Pressure change (side effects) (arterial blood pressure; 3 min)	Arterial Blood Pressure change (side effects) (arterial blood pressure; 5 min)	Arterial Blood Pressure change (side effects) (arterial blood pressure; 10 min)	Arterial Blood Pressure change (side effects) (arterial blood pressure; 20 min)	Arterial Blood Pressure change (side effects) (arterial blood pressure; 30 min)	Femoral Arterial Blood Flow change (femoral artery [3]; 1 min)	Femoral Arterial Blood Flow change (femoral artery [3]; 3 min)	Femoral Arterial Blood Flow change (femoral artery [3]; 5 min)	Femoral Arterial Blood Flow change (femoral artery [3]; 10 min)	Increase in femoral arterial blood flow (femoral artery [3])	Femoral Arterial Blood Flow change (femoral artery [3]; 20 min)	also measured
Cc1ccc([C@H]2Sc3cc(C)ccc3N(CCN(C)C)C(=O)[C@H]2O)cc1 [B]	22	28	48	74	16.4	41.4	70.2	79.2													Increase in femoral arterial blood flow (femoral artery [2]; 10 μg/kg i.v.): 10.4 mL/min
CNCCN1C(=O)[C@@H](OC(C)=O)[C@@H](c2ccc(C)cc2)Sc2cc(C)ccc21 [C]	6	19	50	65	6.8	25.6	44.6	49.0													
CNCCN1C(=O)[C@@H](O)[C@@H](c2ccc(C)cc2)Sc2cc(C)ccc21 [D]			11	35																	
CC(=O)O[C@H]1C(=O)N(CCN(C)C)c2ccc(C)cc2S[C@H]1c1ccc(C)cc1 [G, reference compound]									-11.0 ΔmmHg	-2.5 ΔmmHg	1.5 ΔmmHg	1.0 ΔmmHg	1.0 ΔmmHg	1.5 ΔmmHg	30.0 Δ ml/min	24.0 Δ ml/min	16.0 Δ ml/min	9.5 Δ ml/min	substantially disappeared	7.5 Δ ml/min	effect on arterial blood pressure (arterial blood pressure; [4]): remarkable changes; Femoral Arterial Blood Flow change (femoral artery [3]; 30 min): 5.0 Δ ml/min; AUC60 of the femoral arterial blood flow (femoral artery [3]): 475.3 mL; Vertebral Arterial Blood Flow change (side effects) (vertebral artery; 1 min): 26.5 Δ ml/min; Vertebral Arterial Blood Flow change (side effects) (vertebral artery; 3 min): 18.0 Δ ml/min; Vertebral Arterial Blood Flow change (side effects) (vertebral artery; 5 min): 11.5 Δ ml/min; Vertebral Arterial Blood Flow change (side effects) (vertebral artery; 10 min): 7.0 Δ ml/min; Vertebral Arterial Blood Flow change (side effects) (vertebral artery; 20 min): 3.5 Δ ml/min; Vertebral Arterial Blood Flow change (side effects) (vertebral artery; 30 min): 2.5 Δ ml/min; effect on vertebral arterial blood flow (vertebral artery; [4]): remarkable changes
COc1ccc([C@@H]2Sc3ccccc3N(CCN(C)C)C(=O)[C@@H]2OC(C)=O)cc1 [H, reference compound]									-11.5 ΔmmHg	-4.5 ΔmmHg	-2.0 ΔmmHg	-1.0 ΔmmHg	0.0 ΔmmHg	1.0 ΔmmHg	38.5 Δ ml/min	34.5 Δ ml/min	22.5 Δ ml/min	8.0 Δ ml/min	substantially disappeared	1.0 Δ ml/min	Femoral Arterial Blood Flow change (femoral artery [3]; 30 min): -1.5 Δ ml/min; AUC60 of the femoral arterial blood flow (femoral artery [3]): 300.5 mL; Vertebral Arterial Blood Flow change (side effects) (vertebral artery; 1 min): 25.5 Δ ml/min; Vertebral Arterial Blood Flow change (side effects) (vertebral artery; 3 min): 18.0 Δ ml/min; Vertebral Arterial Blood Flow change (side effects) (vertebral artery; 5 min): 13.5 Δ ml/min; Vertebral Arterial Blood Flow change (side effects) (vertebral artery; 10 min): 7.5 Δ ml/min; Vertebral Arterial Blood Flow change (side effects) (vertebral artery; 20 min): 4.5 Δ ml/min; Vertebral Arterial Blood Flow change (side effects) (vertebral artery; 30 min): 2.0 Δ ml/min
